Measured values published in paper PMC10916352, “Safety Evaluation of a Prototypical Diazirine-Based Covalent Crosslinker and Molecular Adhesive” (International Journal of Toxicology, 2023).
Structures can show the parent of a compound that is named as a salt.

Experiments:
[1] = tested on: Salmonella typhimurium TA98; assay: Bacterial reverse mutation test (Ames), strain TA98; type: cell-based; details: positive control tested singular
Protocol: (§1) The reverse mutation test was performed to determine the potential of BondLynx and/or its metabolites to induce reverse mutations at the histidine locus of Salmonella typhimurium.[26],[27] The test employs strains of Salmonella typhimurium carrying mutations in the genes involved in histidine production, such that they are only able to grow in histidine supplemented culture media. Upon exposure to mutagenic materials, these mutations may be reversed, thereby restoring the ability to grow in histidine-free media. When grown in the presence of the test compound on media with a small amount of histidine, tester strains grow briefly to allow the opportunity for mutation, followed by proliferation of revertant colonies upon depletion of the provided histidine. Thus, the number of revertant colonies following incubation is indicative of the ability of the test compound to induce mutations.
(§2) Tests were performed on two strains of the bacteria (TA98 and TA100) in the absence and presence of an exogenous mammalian metabolic activation system (5% v/v S9). Positive controls and BondLynx were suspended in dimethyl sulfoxide (DMSO) for testing, and DMSO served as the vehicle control. Positive controls consisted of 2-nitrofluorene (10 μg/plate) for the TA98 strain without S9, methyl mesylate (650 μg/plate) for the TA100 strain without S9, and 2-aminoanthracene for both strains with S9 (1 μg/plate for TA98 and 5 μg/plate for TA100). Eight concentrations of BondLynx (1.7, 5.4, 17, 52, 164, 512, 1600 and 5000 μg/plate) were tested in triplicate. The vehicle control was tested in triplicate and the positive controls were tested singular.
(§3) Test solutions were prepared by pre-incubating .1 mL fresh bacterial culture (10^9 cells/mL), .1 mL of a BondLynx dilution or control solution, and .5 mL of S9 mix or .1 M phosphate buffer for 30 min before adding to 3 mL of molten (45 ± 2°C) top agar. After mixing in a vortex, agar solutions were poured onto selective agar plates. Upon solidification, the prepared plates were inverted and incubated at 37.0 ± 1.0°C for 48 ± 4 h. Following incubation, revertant colonies were counted with a Sorcerer Colony Counter. The condition of the bacterial background lawn was evaluated macroscopically and/or microscopically using a dissecting microscope when considered necessary.

[2] = tested on: Salmonella typhimurium TA100; assay: Bacterial reverse mutation test (Ames), strain TA100; type: cell-based; details: positive control tested singular
Protocol: as §1, §2, §3

[3] = tested on: EPISKIN Small Model (human epidermis model); assay: In vitro skin irritation test, MTT viability; type: cell-based; details: 15 min exposure, 42 h post-incubation
Protocol: Tests were performed in triplicate. […] Following exposure, samples were rinsed with phosphate buffered saline until no test item remain, dried carefully, and placed in a new 2 mL well with pre-warmed Maintenance Medium to incubate for 42 h. After incubation, cell culture inserts were dried carefully, transferred into a 12-well plate prefilled with 2 mL MTT in phosphate buffered saline (.3 mg/mL), and incubated for 3 h. Tissue samples were then dried, and a biopsy punch was taken. The epidermis was separated from the collagen matrix, and both were extracted with 500 μL isopropanol and stored for 70 h refrigerated. The amount of extracted formazan was measured in duplicate for each sample by the OD570.

[4] = tested on: Balb/c 3T3 fibroblasts (clone 31); assay: 3T3 Neutral Red uptake cytotoxicity and phototoxicity assay; details: for Corrected Mean OD540: 8 wells; for Photo Irritation Factor (PIF): non-irradiated IC50 divided by irradiated IC50
Protocol: (§4) The 3T3 Neutral Red uptake assay was used to evaluate the phototoxicity of BondLynx. The NRU assay makes use of Neutral Red dye, a weak cationic dye that penetrates the cell membrane by non-ionic passive diffusion and accumulates in lysosomes. Cytotoxicity of the test material is evaluated by measuring the OD540 to assess the uptake of Neutral Red dye.[28],[29] […] By measuring cytotoxicity in the absence vs presence of UV and visible light, the phototoxicity of the test material can be determined.[30],[31]
(§5) Cells were routinely trypsinized and passaged, at least once weekly, with a split ratio 1:3 to 1:4 to achieve a near confluent culture.
(§6) Stock solutions of both controls were freshly prepared on the day of testing. The vehicle control was 1% DMSO in EBSS for the positive control, EBSS for the negative control, and .5% ethanol in EBSS for BondLynx. BondLynx was dissolved in ethanol for testing. […] All controls and BondLynx were handled in the dark and tested in 8-fold.
(§7) In preparation for testing, cultures of 3T3 fibroblasts were trypsinized and resuspended in culture medium. […] A total of six plates were prepared in this manner – two each for the positive control, the negative control, and BondLynx. Following incubation, the cell culture medium was removed, and the wells washed with DPBS (Dulbecco’s phosphate-buffered saline). A 200 μL aliquot of each dilution of the test compound (BondLynx or a control) was added the first eight columns, and the appropriate vehicle control was added to the last four columns. All plates were incubated an additional 60 min before irradiating one plate for each test compound (+Irr) in a solar simulator with a WG320 nm filter for 22 min (equivalent to 5 J/cm^2 UV-A), while the second plate for each test compound (–Irr) was kept in the dark at room temperature. Subsequently, the test solutions were removed from the plates, and the cells were washed once with DPBS and suspended in 200 μL of supplemented DMEM to incubate for an additional 20-24 h.
(§8) Immediately following incubation, the confluency of each plate was visually assessed, and the culture medium was replaced with 100 μL of Neutral Red dye (50 μg/mL). The plates were incubated another 3.5 h before removing the dye, washing with 150 μL of DPBS, and shaking for 20-40 min in 150 μL Neutral Red destain solution (ethanol:acetic acid:distilled water, 50:1:49). The optical density at 540 nm was measured for each well and corrected by subtracting the appropriate blank.

[5] = as above; details: mouse, Viability (%)
Protocol: as §4, §5, §6, §7, §8

Nc1ccc2cc3ccccc3cc2c1 [2-aminoanthracene, reference compound]
Revertant Colonies (With S9) ([1]; TA98, with S9, 1 μg/plate): 657
Revertant Colonies (With S9) ([2]; TA100, with S9, 5 μg/plate): 363

O=[N+]([O-])c1ccc2c(c1)Cc1ccccc1-2 [2-nitrofluorene, reference compound]
Revertant Colonies (Without S9) ([1]; TA98, without S9, 10 μg/plate): 1962

COS(C)(=O)=O [Methyl mesylate, methyl mesylate, reference compound]
Revertant Colonies (Without S9) ([2]; TA100, without S9, 650 μg/plate): 646

CCCCCCCCCCCCOS(=O)(=O)[O-].[Na+] [SDS, sodium dodecyl sulphate]
Mean ± SD (OD570 corrected) [3]: .039 ± .005
Cell Viability (%) ([3]; relative to phosphate buffered saline): 4.0%
Viability (%) ([4]; +Irr, 0.1 μg/mL): 100.0%
Corrected Mean OD540 ([4]; +Irr, 0.1 μg/mL): 1.17
Viability (%) ([4]; +Irr, 0.316 μg/mL): 99.1%
Corrected Mean OD540 ([4]; +Irr, 0.316 μg/mL): 1.16
Viability (%) ([4]; +Irr, 1 μg/mL): 101.7%
Corrected Mean OD540 ([4]; +Irr, 1 μg/mL): 1.19
Viability (%) ([4]; +Irr, 3.16 μg/mL): 100.0%
Corrected Mean OD540 ([4]; +Irr, 3.16 μg/mL): 1.17
Viability (%) ([4]; +Irr, 10 μg/mL): 95.7%
Corrected Mean OD540 ([4]; +Irr, 10 μg/mL): 1.12
Viability (%) ([4]; +Irr, 31.6 μg/mL): 18.8%
Corrected Mean OD540 ([4]; +Irr, 31.6 μg/mL): 0.22
Viability (%) ([4]; +Irr, 100 μg/mL): 0.6%
Corrected Mean OD540 ([4]; +Irr, 100 μg/mL): 0.007
Viability (%) ([4]; +Irr, 316 μg/mL): 0.5%
Corrected Mean OD540 ([4]; +Irr, 316 μg/mL): 0.006
IC50 (50% inhibition of Neutral Red uptake), presence of irradiation ([4]; +Irr, 5 J/cm^2 UV-A): 21.65 µg/mL
Photo Irritation Factor (PIF) [4]: 1.14
IC50 (50% inhibition of Neutral Red uptake), absence of irradiation ([4]; –Irr): 27.4 µg/mL
Viability (%) ([4]; –Irr, 0.1 μg/mL): 102.0%
Corrected Mean OD540 ([4]; –Irr, 0.1 μg/mL): 1.25
Viability (%) ([4]; –Irr, 0.316 μg/mL): 99.6%
Corrected Mean OD540 ([4]; –Irr, 0.316 μg/mL): 1.22
Viability (%) ([4]; –Irr, 1 μg/mL): 101.2%
Corrected Mean OD540 ([4]; –Irr, 1 μg/mL): 1.24
Viability (%) ([4]; –Irr, 3.16 μg/mL): 101.2%
Corrected Mean OD540 ([4]; –Irr, 3.16 μg/mL): 1.24
Viability (%) ([4]; –Irr, 10 μg/mL): 98.8%
Corrected Mean OD540 ([4]; –Irr, 10 μg/mL): 1.21
Viability (%) ([4]; –Irr, 31.6 μg/mL): 26.1%
Corrected Mean OD540 ([4]; –Irr, 31.6 μg/mL): 0.32
Viability (%) ([4]; –Irr, 100 μg/mL): 0.2%
Corrected Mean OD540 ([4]; –Irr, 100 μg/mL): 0.003
Viability (%) ([4]; –Irr, 316 μg/mL): 0.04%
Corrected Mean OD540 ([4]; –Irr, 316 μg/mL): 0.0005

c1ccc2cc3ccccc3cc2c1 [anthracene]
viability at 82 min, 0.01 μg/mL ([5]; +Irr): 98.1%
viability at 82 min, 0.0316 μg/mL ([5]; +Irr): 60.3%
viability at 82 min, 0.1 μg/mL ([5]; +Irr): 3.9%
viability at 82 min, 0.316 μg/mL ([5]; +Irr): 4.1%
viability at 82 min, 1 μg/mL ([5]; +Irr): 4.2%
viability at 82 min, 3.16 μg/mL ([5]; +Irr): 4.2%
viability at 82 min, 10 μg/mL ([5]; +Irr): 3.3%
viability at 82 min, 31.6 μg/mL ([5]; +Irr): 8.01%
viability at 82 min, 0.01 μg/mL ([5]; –Irr): 103%
viability at 82 min, 0.0316 μg/mL ([5]; –Irr): 102%
viability at 82 min, 0.1 μg/mL ([5]; –Irr): 102%
viability at 82 min, 0.316 μg/mL ([5]; –Irr): 101%
viability at 82 min, 1 μg/mL ([5]; –Irr): 100%
viability at 82 min, 3.16 μg/mL ([5]; –Irr): 101%
viability at 82 min, 10 μg/mL ([5]; –Irr): 101%
viability at 82 min, 31.6 μg/mL ([5]; –Irr): 103%
Corrected Mean OD540 ([4]; +Irr, 0.01 μg/mL): 1.09
Corrected Mean OD540 ([4]; +Irr, 0.0316 μg/mL): 0.67
Corrected Mean OD540 ([4]; +Irr, 0.1 μg/mL): 0.043
Corrected Mean OD540 ([4]; +Irr, 0.316 μg/mL): 0.046
Corrected Mean OD540 ([4]; +Irr, 1 μg/mL): 0.047
Corrected Mean OD540 ([4]; +Irr, 3.16 μg/mL): 0.047
Corrected Mean OD540 ([4]; +Irr, 10 μg/mL): 0.037
Corrected Mean OD540 ([4]; +Irr, 31.6 μg/mL): 0.089
IC50 ([4]; Mus musculus, BALB/c3T3, light or radiation study, read-out: IC50 (50% inhibition of Neutral Red uptake), presence of irradiation): 0.03 µg/mL
Photo Irritation Factor (PIF) [4]: > 31.6
IC50 (50% inhibition of Neutral Red uptake), absence of irradiation ([4]; –Irr): no IC50
Corrected Mean OD540 ([4]; –Irr, 0.01 μg/mL): 1.15
Corrected Mean OD540 ([4]; –Irr, 0.0316 μg/mL): 1.14
Corrected Mean OD540 ([4]; –Irr, 0.1 μg/mL): 1.14
Corrected Mean OD540 ([4]; –Irr, 0.316 μg/mL): 1.13
Corrected Mean OD540 ([4]; –Irr, 1 μg/mL): 1.12
Corrected Mean OD540 ([4]; –Irr, 3.16 μg/mL): 1.13
Corrected Mean OD540 ([4]; –Irr, 10 μg/mL): 1.13
Corrected Mean OD540 ([4]; –Irr, 31.6 μg/mL): 1.15
